What was measured:
rNTS2 receptor [1] = target: T1, rNTS2 receptor (Rattus norvegicus, UniProt Q63384); test: NTS2 FLIPR calcium mobilization assay, agonist mode; assay type: cell-based; conditions: for agonist behaviour in the NTS2 FLIPR assay (calcium release): CHO cell line stably expressing rNTS2, FLIPR Tetra, pilot study
T1 sequence (Q63384 1-416): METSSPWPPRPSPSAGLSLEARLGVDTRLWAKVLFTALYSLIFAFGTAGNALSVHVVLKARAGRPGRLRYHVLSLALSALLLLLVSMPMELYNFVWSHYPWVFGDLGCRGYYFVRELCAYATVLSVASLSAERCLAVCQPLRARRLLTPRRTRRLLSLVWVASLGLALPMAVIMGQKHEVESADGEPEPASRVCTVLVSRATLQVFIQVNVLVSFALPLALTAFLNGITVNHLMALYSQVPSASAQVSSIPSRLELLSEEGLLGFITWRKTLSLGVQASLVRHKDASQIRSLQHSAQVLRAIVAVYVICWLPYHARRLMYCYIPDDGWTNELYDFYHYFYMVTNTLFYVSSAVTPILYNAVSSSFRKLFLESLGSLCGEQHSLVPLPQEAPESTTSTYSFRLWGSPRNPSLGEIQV

rNTS2 receptor [2] = target: T1, rNTS2 receptor; test: NTS2 FLIPR calcium mobilization assay, antagonist mode; assay type: cell-based; conditions: for type of antagonism of 3b in the Ke experiment at NTS2: Ke assays against dose-response curves of control agonist 3b
rNTS2 receptor [3] = target: T1, rNTS2 receptor; test: Competitive binding assay versus [125I]NT at NTS2; conditions: ratio of Ki values, versus compound 13
NTS1 = NTS1 (Rattus norvegicus, UniProt P20789); test: NTS1 FLIPR assay; assay type: cell-based; conditions: data not shown
Sequence of NTS1 (P20789 whole entry): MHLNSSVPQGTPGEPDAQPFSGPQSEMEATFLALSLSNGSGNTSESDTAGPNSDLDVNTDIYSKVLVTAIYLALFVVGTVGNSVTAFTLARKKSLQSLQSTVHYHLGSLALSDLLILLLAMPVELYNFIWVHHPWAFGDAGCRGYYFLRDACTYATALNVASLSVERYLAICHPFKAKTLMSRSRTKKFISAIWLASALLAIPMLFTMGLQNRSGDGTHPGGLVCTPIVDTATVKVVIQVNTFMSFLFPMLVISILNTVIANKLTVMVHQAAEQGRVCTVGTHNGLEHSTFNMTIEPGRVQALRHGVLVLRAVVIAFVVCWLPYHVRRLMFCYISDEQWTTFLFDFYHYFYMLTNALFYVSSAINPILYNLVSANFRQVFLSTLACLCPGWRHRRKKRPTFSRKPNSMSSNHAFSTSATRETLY

| SMILES | agonist behaviour in the NTS2 FLIPR assay (calcium release) (rNTS2 receptor [1]) | type of antagonism of 3b in the Ke experiment at NTS2 (rNTS2 receptor [2]) | activity in the NTS1 FLIPR assay (NTS1) | also measured |
| --- | --- | --- | --- | --- |
| C[C@@H]1CN([C@H]2CC[C@](C#N)(c3ccc(F)cc3)CC2)CC[C@]1(C(=O)O)c1ccccc1 [Levocabastine, levocabastine] | potent partial agonist activity |  |  | Emax (rNTS2 receptor [1]; read-out: FLIPR assay NTS2 Emax): 14 to 16% |
| Cc1ccc(S(=O)(=O)Nc2ccc3c(c2)c(C(=O)C(F)(F)F)cn3CC(=O)N[C@@H](CC(C)C)C(=O)O)cc1 [compound 5, N-{[5-{[(4-Methylphenyl)sulfonyl]amino}-3-(trifluoroacetyl)-1H-indol-1-yl]acetyl}-L-leucine] |  | insurmountable antagonist activity | Neither of the test compounds (5 or 13) showed activity | fold more active than 13 in the NTS2 FLIPR assay (antagonist activity) (rNTS2 receptor [2]; ratio of IC50 values, versus compound 13): 90 fold; fold more active than NT in the NTS2 FLIPR assay (rNTS2 receptor [2]; ratio of IC50 values, versus endogenous ligand NT): ~3 fold; fold boost to NTS2 binding affinity versus 13 (rNTS2 receptor [3]): 7.5 fold |
| Cc1ccc(S(=O)(=O)Nc2ccc3c(ccn3CC(=O)N[C@@H](CC(C)C)C(=O)O)c2)cc1 [compound 13, N-[(5-{[(4-Methylphenyl)sulfonyl]amino}-1H-indol-1-yl)acetyl]-L-leucine] |  | insurmountable | Neither of the test compounds (5 or 13) showed activity | NTS2 agonist activity in library screen (rNTS2 receptor [1]; single concentration 10 μM): devoid of NTS2 agonist activity; activity at NTS1 in library screen (NTS1; single concentration 10 μM): no activity at NTS1 |
| COc1cccc(OC)c1-c1cc(C(=O)NC2(C(=O)O)C3CC4CC(C3)CC2C4)nn1-c1ccc(C(=O)N(C)CCCN(C)C)cc1C(C)C (stereo not shown) [3b] | full agonists |  |  |  |
| COc1cccc(OC)c1-c1cc(C(=O)NC2(C(=O)O)C3CC4CC(C3)CC2C4)nn1-c1ccnc2cc(Cl)ccc12 (stereo not shown) [3a] | full agonists |  |  |  |

Source: paper PMC4161155 (Journal of Medicinal Chemistry, 2014)
